Data taken from article PMC6572376, “N1-Propargylguanosine Modified mRNA Cap Analogs: Synthesis, Reactivity, and Applications to the Study of Cap-Binding Proteins” (Molecules, 2019).

Molecular target: T1, hDcpS (Homo sapiens, UniProt Q96C86)
T1 construct: made in house
T1 sequence (Q96C86 1-337): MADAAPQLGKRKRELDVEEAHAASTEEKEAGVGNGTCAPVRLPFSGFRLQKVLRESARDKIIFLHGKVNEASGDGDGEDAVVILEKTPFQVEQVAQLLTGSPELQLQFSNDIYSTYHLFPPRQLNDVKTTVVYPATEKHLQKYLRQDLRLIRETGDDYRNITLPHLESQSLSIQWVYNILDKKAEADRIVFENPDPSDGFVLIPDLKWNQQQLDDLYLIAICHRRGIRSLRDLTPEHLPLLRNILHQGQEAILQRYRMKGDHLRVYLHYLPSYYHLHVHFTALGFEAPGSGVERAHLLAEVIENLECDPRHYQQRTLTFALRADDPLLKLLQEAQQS
Assay: hDcpS cleavage of fluorescent probes monitored by emission spectroscopy
Type: biochemical
Settings: 30 nM hDcpS; probe 30 µM / 100 nM (legend, methods)
Protocol: Fluorescently labeled cap analogs that serve as DcpS substrates can be considered as activity probes. We performed an enzymatic cleavage test with 30 nM hDcpS and 30 µM probe to evaluate whether fluorescently labeled derivatives of cap analog 1 (probes 6–9) can be used to monitor enzymatic activity via changes in fluorescence emission. […] For the Py-labeled probe 9, the fluorescence intensity at the emission maximum increased by 50% after complete DcpS cleavage (Figure 4c and Figure S3). Nevertheless, certain previously developed probes provided higher sensitivity than the one formulated here.
Human DcpS was expressed and purified as described previously. Enzyme was stored at −80 °C at 10 µM concentration (monomer). Enzyme hDcpS was preincubated at 30 °C for 15 min before usage. […] Reaction progress was monitored by recording emission spectra, upon excitation at the wavelength characteristic for a fluorophore studied, using Cary Eclipse (Agilent Technologies, Santa Clara, CA, USA) equipped with a xenon lamp in a quartz cuvette (10 mm × 4 mm).
Figure 4 The influence of complete cleavage by hDcpS (30 nM) on the fluorescence properties of probes 6–9 (100 nM). Emission spectra before (0 min) and after (60 min) decapping scavenger (DcpS) cleavage for compounds 6 (a) and 9 (b); (c) The ratios of fluorescence intensity after and before cleavage (I/I0) for all studied probes.

`C[n+]1cn([C@@H]2O[C@H](COP(=O)(O)OP(=O)([O-])OP(=O)(O)OC[C@H]3O[C@@H](n4cnc5c(=O)n(Cc6cn(CCOCCOCCNC(=O)Cc7ccc8ccc9cccc%10ccc7c8c9%10)nn6)c(N)nc54)[C@H](O)[C@@H]3O)[C@@H](O)[C@H]2O)c2nc(N)nc(O)c21` [Compound 9, m^7Gp3G-N1-Py] was tested, and the “Increase of fluorescence intensity at the emission maximum after complete DcpS cleavage” value was 50%.
